Where two headings read alike, the source gives them in different places.

For 20 compounds, EC50 and CC50 results are on record in patent publication US11639350B2, “Heteroaryldihydropyrimidine derivatives and methods of treating hepatitis B infections” (Janssen Pharmaceutica NV, priority 2018, dated 2023).

The subject of data set [1] is HBV. The data set can be described thus: HBV inhibitory activity: HBV DNA in the culture medium of HepG2.2.15 cells by q-PCR. As to conditions: Hepatitis B virus, HepG2.2.15, 144 h. Format: cell-based. Put shortly:
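Supernatant HBV DNA quantified by q-PCR after a 6-day compound exposure, with one mid-course medium change, of HepG2.2.15 cells (stably integrated HBV; 40,000 per well, 2% FBS). Eight-point 3-fold series topped at 10 μM for antiviral EC50; separate plates of 5,000 cells per well with 100 μM top give CC50.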

Data set [2] is described as follows: Cytotoxicity determination in HepG2.2.15 cells (CCK-8). The following applies: human, 6 days of compound treatment, CCK-8, highest concentration 100 μM. It counts as cell-based. Put shortly:
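CC50 is from CCK-8 absorbance (450 nm, 630 nm reference) after 2.5 h with reagent. Before that, compounds were applied for six days, top concentration 100 μM, eight threefold dilutions, one mid-course medium change, to stably HBV-integrated HepG2.2.15 cells plated at 5,000/well in 2% FBS.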

Setting [3] is: HepG2.2.15 cells, 6 days of compound treatment, HBV DNA in culture medium by q-PCR, highest concentration 10 μM, read-out: EC50.

For orientation: EC50 means the concentration needed to bring the measured effect to its halfway point. By CC50 is commonly meant the concentration giving 50% cytotoxicity. High values mean better tolerance by the cells, low ones harm at low concentration. For `CCOC(=O)C1=C(C2CCN(S(=O)(=O)C[C@H]3CC[C@H](C(=O)O)CC3)CC2)NC(c2nccs2)=NC1c1ccc(F)c(F)c1Cl` (stereo partly drawn) [Compound 424, trans-4-(((4-(6-(2-chloro-3,4-difluorophenyl)-5-(ethoxycarbonyl)-2-(thiazol-2-yl)-3,6-dihydropyrimidin-4-yl)piperidinyl)sulfonyl)methyl)cyclohexane-1-carboxylic Acid], the EC50 in data set [1] (setting [3]) turned out to be 0.007 µM. The half-maximal cytotoxic concentration (CC50) at 6 days in data set [2] worked out at 8.2 µM.

Regarding `COC(=O)C1=C(C2CCN(S(=O)(=O)C[C@H]3CC[C@H](C(=O)O)CC3)CC2)NC(c2nccs2)=NC1c1ccc(F)c(F)c1Cl` (stereo partly drawn) [Compound 425, trans-4-(((4-(6-(2-chloro-3,4-difluorophenyl)-5-(methoxycarbonyl)-2-(thiazol-2-yl)-3,6-dihydropyrimidin-4-yl)piperidinyl)sulfonyl)methyl)cyclohexane-1-carboxylic Acid], the EC50 in data set [1] (setting [3]) was 0.006 µM. For the same compound, the CC50 at 6 days in data set [2] worked out at 13.3 µM.

Take `COC(=O)C1=C(C2CCC(S(=O)(=O)N3CCC3)CC2)NC(c2nccs2)=NC1c1ccc(F)c(F)c1Cl` (stereo not shown) [Compound 430, methyl 6-(4-(azetidin-1-ylsulfonyl)cyclohexyl)-4-(2-chloro-3,4-difluorophenyl)-2-(thiazol-2-yl)-1,4-dihydropyrimidine-5-carboxylate]: in data set [1] (setting [3]), the EC50 is 0.015 µM. For the same compound, it took 15.1 µM to reach half-maximal cytotoxicity in data set [2] (CC50 at 6 days).

As for `COCCOCCOCCS(=O)(=O)NC12CC(C3=C(C(=O)OC)C(c4ccc(F)cc4Cl)N=C(c4nccs4)N3)(C1)C2` (stereo not shown) [Compound 440b, Methyl 4-(2-chloro-4-fluorophenyl)-6-(3-(2-(2-(2-methoxyethoxy)ethoxy)ethylsulfonamido)bicyclo[1.1.1]pentan-1-yl)-2-(thiazol-2-yl)-1,4-dihydropyrimidine-5-carboxylate], the EC50 in data set [1] (setting [3]) amounted to 0.013 µM. This compound also had a half-maximal cytotoxic concentration (CC50) at 6 days in data set [2] of 82.9 µM.

For the compound `COC(=O)C1=C(C2CCN(S(=O)(=O)C[C@H]3CC[C@H](C(=O)O)CC3)CC2)NC(c2nccs2)=NC1c1cccc(F)c1C` (stereo partly drawn) [Compound 444b, (trans)-4-(((4-(6-(3-Fluoro-2-methylphenyl)-5-(methoxycarbonyl)-2-(thiazol-2-yl)-3,6-dihydropyrimidin-4-yl)piperidin-1-yl)sulfonyl)methyl)cyclohexanecarboxylic Acid], the EC50 in data set [1] (setting [3]) came out at 0.059 µM. Moreover, the CC50 at 6 days in data set [2] came out at 8.3 µM.

Regarding `COC(=O)C1=C(C2CCN(S(=O)(=O)C[C@H]3CC[C@H](C(=O)O)CC3)CC2)NC(c2nccs2)=NC1c1cccc(F)c1Cl` (stereo partly drawn) [Compound 454, (trans)-4-(((4-(6-(2-Chloro-3-fluorophenyl)-5-(methoxycarbonyl)-2-(thiazol-2-yl)-3,6-dihydropyrimidin-4-yl)piperidin-1-yl)sulfonyl)methyl)-cyclohexanecarboxylic Acid], the EC50 in data set [1] (setting [3]) was found to be 0.037 µM. The compound further displayed a half-maximal cytotoxic concentration (CC50) at 6 days in data set [2] of 12 µM.

On to `COC(=O)C1=C(C2CCN(S(=O)(=O)CC34CC(C(=O)O)(C3)C4)CC2)NC(c2nccs2)=NC1c1ccc(F)c(F)c1Cl` (stereo not shown) [Compound 456, 3-(((4-(6-(2-Chloro-3,4-difluorophenyl)-5-(methoxycarbonyl)-2-(thiazol-2-yl)-3,6-dihydropyrimidin-4-yl)piperidin-1-yl)sulfonyl)methyl)bicyclo[1.1.1]pentane-1-carboxylic Acid], for which the EC50 in data set [1] (setting [3]) is 0.043 µM. Also, the cytotoxic concentration (CC50) at 6 days in data set [2] came out at 19.5 µM.

Turning to `COC(=O)C1=C(C2CCN(S(=O)(=O)CCC(N)=O)CC2)NC(c2nccs2)=NC1c1ccc(F)cc1Cl` (stereo not shown) [Compound 457, Methyl 6-(1-((3-amino-3-oxopropyl)sulfonyl)piperidin-4-yl)-4-(2-chloro-4-fluorophenyl)-2-(thiazol-2-yl)-1,4-dihydropyrimidine-5-carboxylate], in data set [1] (setting [3]), the EC50 is 0.054 µM. Also, in data set [2], half-maximal cytotoxicity (CC50 at 6 days) was put at 63.4 µM.

`COC(=O)C1=C(C2CCN(S(=O)(=O)c3cnn(CCC(C)(C)O)c3)CC2)NC(c2nccs2)=NC1c1ccc(F)cc1Cl` (stereo not shown) [Compound 458, Methyl 4-(2-chloro-4-fluorophenyl)-6-(1-((1-(3-hydroxy-3-methylbutyl)-1H-pyrazol-4-yl)sulfonyl)piperidin-4-yl)-2-(thiazol-2-yl)-1,4-dihydropyrimidine-5-carboxylate]: the EC50 in data set [1] (setting [3]) was less than 0.0046 µM. For the same compound, the CC50 at 6 days in data set [2] worked out at 15.5 µM.

Turning to `COCCOCCOCCS(=O)(=O)N1CCC(C2=C(C(=O)OC)C(c3ccc(F)cc3Cl)N=C(c3nccs3)N2)CC1` (stereo not shown) [Compound 459, Methyl 4-(2-chloro-4-fluorophenyl)-6-(1-((2-(2-(2-methoxyethoxy)ethoxy)ethyl)sulfonyl)piperidin-4-yl)-2-(thiazol-2-yl)-1,4-dihydropyrimidine-5-carboxylate], the EC50 in data set [1] (setting [3]) was 0.041 µM. The compound also gave a CC50 at 6 days in data set [2] of 93.5 µM.

In the case of `COCCOCCOCCOCCS(=O)(=O)N1CCC(C2=C(C(=O)OC)C(c3ccc(F)cc3Cl)N=C(c3nccs3)N2)CC1` (stereo not shown) [Compound 460, Methyl 6-(1-(2,5,8,11-tetraoxatridecan-13-ylsulfonyl)piperidin-4-yl)-4-(2-chloro-4-fluorophenyl)-2-(thiazol-2-yl)-1,4-dihydropyrimidine-5-carboxylate], in data set [1] (setting [3]), the EC50 turned out to be 0.008 µM. The compound further displayed a CC50 at 6 days in data set [2] of 19.9 µM.

Take `CCOC(=O)C1=C(C2CCN(S(=O)(=O)c3cnn(CCCCCC(=O)O)c3)CC2)NC(c2nccs2)=NC1c1ccc(F)c(F)c1Cl` (stereo not shown) [Compound 462, 6-(4-((4-(6-(2-Chloro-3,4-difluorophenyl)-5-(ethoxycarbonyl)-2-(thiazol-2-yl)-3,6-dihydropyrimidin-4-yl)piperidin-1-yl)sulfonyl)-1H-pyrazol-1-yl)hexanoic Acid]: the concentration for a half-maximal effect (EC50) in data set [1] (setting [3]) was determined as 0.024 µM. The compound further showed a 50% cytotoxic concentration (CC50) at 6 days in data set [2] of 6.6 µM.

For `CCOC(=O)C1=C(C2CCN(S(=O)(=O)c3cnn(CCCCC(=O)O)c3)CC2)NC(c2nccs2)=NC1c1ccc(F)c(F)c1Cl` (stereo not shown) [Compound 463, 5-(4-((4-(6-(2-Chloro-3,4-difluorophenyl)-5-(ethoxycarbonyl)-2-(thiazol-2-yl)-3,6-dihydropyrimidin-4-yl)piperidin-1-yl)sulfonyl)-1H-pyrazol-1-yl)pentanoic acid], in data set [1] (setting [3]), the concentration for a half-maximal effect (EC50) is 0.031 µM. In data set [2], the CC50 at 6 days is 12.2 µM.

Consider `COCCOCCS(=O)(=O)N1CCC(C2=C(C(=O)OC)C(c3ccc(F)cc3Cl)N=C(c3nccs3)N2)CC1` (stereo not shown) [Compound 464, Methyl 4-(2-chloro-4-fluorophenyl)-6-(1-((2-(2methoxyethoxy)ethyl)sulfonyl)piperidin-4-yl)-2-(thiazol-2-yl)-1,4-dihydropyrimidine-5-carboxylate], for which, in data set [1] (setting [3]), the concentration for a half-maximal effect (EC50) is less than 0.0046 µM. Further, in data set [2], half-maximal cytotoxicity (CC50 at 6 days) was put at 29.4 µM.

Consider `COC(=O)C1=C(C2CCN(S(=O)(=O)c3cnn(Cc4ncco4)c3)CC2)NC(c2nccs2)=NC1c1ccc(F)c(F)c1Cl` (stereo not shown) [Compound 465, Methyl 4-(2-chloro-3,4-difluorophenyl)-6-(1-((1-(oxazol-2-ylmethyl)-1H-pyrazol-4-yl)sulfonyl)piperidin-4-yl)-2-(thiazol-2-yl)-1,4-dihydropyrimidine-5-carboxylate], for which the EC50 in data set [1] (setting [3]) turned out to be 0.009 µM. Besides, it took 35.2 µM to reach half-maximal cytotoxicity in data set [2] (CC50 at 6 days).

Regarding `COC(=O)C1=C(C2CCN(S(=O)(=O)CCOCCOCCO)CC2)NC(c2nccs2)=NC1c1ccc(F)cc1Cl` (stereo not shown) [Compound 468, Methyl 4-(2-chloro-4-fluorophenyl)-6-(1-((2-(2-(2-hydroxyethoxy)ethoxy)ethyl)sulfonyl)piperidin-4-yl)-2-(thiazol-2-yl)-1,4-dihydropyrimidine-5-carboxylate], the EC50 in data set [1] was determined as 0.009 µM. The compound also returned a CC50 at 6 days in data set [2] of 42.9 µM.

Regarding `COC(=O)C1=C(C2CCN(S(=O)(=O)c3cnn([C@H]4C[C@H](C(=O)O)C4)c3)CC2)NC(c2nccs2)=NC1c1ccc(F)cc1Cl` (stereo partly drawn) [Compound 470, (trans)-3-(4-((4-(6-(2-Chloro-4-fluorophenyl)-5-(methoxycarbonyl)-2-(thiazol-2-yl)-3,6-dihydropyrimidin-4-yl)piperidin-1-yl)sulfonyl)-1H-pyrazol-1-yl)cyclobutanecarboxylic Acid], the concentration giving a half-maximal response (EC50) in data set [1] (setting [3]) is 0.056 µM. Also, the CC50 at 6 days in data set [2] was 20.1 µM.

On to `COC(=O)C1=C(C2CCN(S(=O)(=O)c3cnn(CCCCC(=O)O)c3)CC2)NC(c2nccs2)=NC1c1ccc(F)cc1Cl` (stereo not shown) [Compound 471, 5-(4-((4-(6-(2-Chloro-4-fluorophenyl)-5-(methoxycarbonyl)-2-(thiazol-2-yl)-3,6-dihydropyrimidin-4-yl)piperidin-1-yl)sulfonyl)-1H-pyrazol-1-yl)pentanoic Acid], for which the concentration for a half-maximal effect (EC50) in data set [1] (setting [3]) is 0.053 µM. In data set [2], the CC50 at 6 days is 32.3 µM.

Regarding `COC(=O)C1=C(C2CCN(S(=O)(=O)CCO)CC2)NC(c2nccs2)=NC1c1ccc(F)c(F)c1Cl` (stereo not shown) [Compound 474, methyl 4-(2-chloro-3,4-difluorophenyl)-6-(1-((2-hydroxyethyl)sulfonyl)piperidin-4-yl)-2-(thiazol-2-yl)-1,4-dihydropyrimidine-5-carboxylate], the EC50 in data set [1] (setting [3]) came out at 0.007 µM. The same compound showed a CC50 at 6 days in data set [2] of 18.3 µM.

On to `COC(=O)C1=C(C2CCN(S(=O)(=O)C3CCC(CC(=O)O)CC3)CC2)NC(c2nccs2)=NC1c1ccc(F)c(F)c1Cl` (stereo not shown) [Compound 478, 2-(4-((4-(6-(2-Chloro-3,4-difluorophenyl)-5-(methoxycarbonyl)-2-(thiazol-2-yl)-3,6-dihydropyrimidin-4-yl)piperidin-1-yl)sulfonyl)cyclohexyl)acetic Acid], for which the 50% effective concentration (EC50) in data set [1] (setting [3]) amounted to 0.006 µM. The CC50 at 6 days in data set [2] is 23.4 µM.
